{
  "source": "patent US20240424036A1",
  "about": "“COMPOSITIONS AND METHODS FOR PREVENTING OR TREATING INCONTINENCE, OVERACTIVE BLADDER, OR MENSTRUAL CRAMPING” (priority 2018, published 2024)",
  "key": {"[1]": {"test_system": "primary myofibroblast cells", "assay": "Myofibroblast populated collagen gel contraction assay", "assay_type": "cell-based", "method": "Bacterial supernatants from E. coli, L. crispatus, and L. gasseri strain KE-1 (ATCC Designation No. PTA-125162) were added to a myofibroblast populated collagen matrix, both from pure culture and mixtures with DMEM with 2% FBS. In addition, GABA, ATP and LPS were included as controls. The collagen contraction assay using primary myofibroblast cells seeded on top of a collagen matrix was tested against the bacterial products. […] As depicted in FIG. 12C, pure ATP caused contraction of myofibroblasts in the first hour (30.37%) and continued for 24 hours (68.56%). […] Based on previous literature, it is believed that the contraction maybe caused by E. coli was due to LPS.\nBladder epithelial cells (5637-ATCC HTB-9) were maintained in RPMI 1640 (Roswell-Park Memorial Institute media—Thermo Fisher Scientific, MA) supplemented with 10% fetal bovine serum (FBS) (Thermo Fisher Scientific, Ma.) and 2 mM L-glutamine (Thermo Fisher Scientific, MA.) at 37° C. and 5% CO2. The media was changed every 48 hours or more regularly if the cells were confluent (90%-100%), after washing by 1×PBS and trypsinization by 0.25% Trypsin-EDTA (1×) (Gibco), with the ratio of 1 to 10. Primary myofibroblast cells were extracted from the palmar fascia during surgery from normal tissue. Primary cultures were maintained in DMEM with 10% fetal bovine serum (FBS; Life Technologies, Carlsbad, CA, USA), 1% L-glutamine (Life Technologies) and 1% antibiotic-antimycotic solution (Life Technologies) at 37° C. in 5% CO2. All primary cell lines were used up to a maximum of four passages, after which they were discarded."}, "L. crispatus": {"test_system": "L. crispatus", "assay": "Growth of L. crispatus in AU supplemented with ATP", "assay_type": "cell-based, Lactobacillus crispatus", "settings": "AU supplemented with different concentrations of ATP, FIG. 8E", "method": "As depicted in FIG. 8D, the amount of ATP remaining when L. crispatus was grown in AU supplemented with 0.1 mM ATP for 24 hours was 22.89±0.98 uM, which was less than half the control (49.2±6.3 uM) (P≤0.0005). To further investigate ATP reduction, L. crispatus was cultured in AU supplemented with different concentrations of ATP (FIG. 8E), as well as in AU supplemented with 50% E. coli supernatant (FIG. 8G), and 25% G. vaginalis supernatant (FIGS. 8H and 8J), as potential natural sources of ATP. The growth of L. crispatus was increased by increasing ATP concentration (FIG. 8E), including that emanating from the E. coli and G. vaginalis supernatants (FIGS. 8H and 8J). […] In FIGS. 8A-8L, statistical significance was determined using Tukey's test, p≤0.05, and is designated with three asterisks (p less than 0.05*, 0.01**, 0.001***).\nFor investigation the subtherapeutic concentration of ciprofloxacin, the L. crispatus was grown in deMan, Rogosa, Sharpe media (MRS, Difco, MD). Growth curves for these bacteria were generated using a plate reader (Eon Biotek, VT) at OD600 and 37° C. to determine exponential phase."}, "E. coli [2]": {"test_system": "E. coli", "assay": "Growth of E. coli supplemented with ATP", "assay_type": "cell-based, Escherichia coli", "settings": "FIG. 8F"}, "5637 cells": {"test_system": "5637 cells", "assay": "Fluorescent microscopy of calcium influx of 5637 cells (FLUO-4)", "assay_type": "cell-based, human", "method": "Supernatants were collected from cultures grown overnight (24 hours) at 37° C. after reaching stationary phase. Cultures were pelleted by centrifugation at 5000 rpm (Eppendorf Centrifuge 5804 R) for 15 minutes. The supernatant was pH adjusted to 7.0 with 0.1 Molar HCL or NaOH, filter sterilized with 0.22 um sterile syringe filter, and aliquoted and stored at −20 C° until use. In the case of E. coli and E. faecalis, overnight cultures were diluted 1:100 with fresh artificial urine, returned to incubation at 37° C. and sampled at T=1, 2, 3, 4, 5 and 24 hours for testing. […]\nThe influx of calcium was measured using the FLUO-4 DIRECT™ Calcium Assay kit (Invitrogen™, CA). […] Cells were counted by using the INVITROGEN COUNTESS AUTOMATED CELL COUNTER (Thermo Fisher Scientific, MA.) per the manufacturers' instructions. […] The effect of treatments was assessed using a NIKON EPIFLUORESCENCE TS2R scope at 10× magnification at 494 nm for excitation and 516 nm for emission for 60 seconds. The image intensity was calculated using ImageJ and is indicative of Ca^2+ influx into the urothelial cell's cytoplasmic space from either the extracellular environment or intracellular Ca^2+ stores (referred to as Ca^2+ influx)."}, "E. coli [3]": {"test_system": "E. coli", "assay": "ATP release by E. coli at subtherapeutic ciprofloxacin concentrations", "assay_type": "cell-based, Escherichia coli", "settings": "concentrations below the MIC of 0.25, 0.125, 0.0625 ug/mL, FIG. 9B", "method": "Further testing was completed on E. coli and its release of ATP. Testing was conducted to determine the minimum inhibitory concentration (MIC) and subtherapeutic concentrations of exposure to the antibiotic ciprofloxacin (Cip).\nThe release of ATP from bacterial supernatants was measured using an ATP colorimetric/fluorometric assay kit (Biovision Inc, CA). Samples and reagents were prepared according to the protocol provided. The OD numbers were taken by the BIOTEK EON microplate reader. A luminescent assay kit BACTITER-GLO™ Microbial Cell Viability Assay, G8230) was used to quantify the amount of extracellular ATP released by the bacteria into the supernatant and released by the cells into the cell media. The SYNERGY™ H4 Hybrid Multi-Mode Microplate Reader was used to quantify the amount of extracellular ATP."}},
  "note": "Entries after “also recorded” stand apart in the source; their conditions may differ.",
  "data": [
    {"smiles": "Nc1ncnc2c1ncn2[C@@H]1O[C@H](COP(=O)(O)OP(=O)(O)OP(=O)(O)O)[C@@H](O)[C@H]1O", "note": "[ATP, adenosine triphosphate]", "values": [
      {"measurement": "contraction of myofibroblasts", "setting": "[1]; after 24 hours, sample alone, FIGS. 12A-12C", "result": 68.56, "unit": "%"},
      {"measurement": "contraction of myofibroblasts", "setting": "[1]; after five hours of exposure, FIG. 12E", "result": 57.5, "unit": "%"},
      {"measurement": "contraction of myofibroblasts", "setting": "[1]; in the first hour, FIG. 12C", "result": 30.37, "unit": "%"},
      {"measurement": "growth of L. crispatus", "setting": "L. crispatus", "result": "increased"},
      {"measurement": "growth of E. coli", "setting": "E. coli [2]", "result": "somewhat inhibitory effect"}
    ]},
    {"smiles": "NCCCC(=O)O", "note": "[GABA, γ-aminobutyric acid]", "values": [
      {"measurement": "effect on stimulation of calcium influx caused by ATP", "setting": "5637 cells; AU containing 1 uM GABA mixed with ATP in AU, FIG. 10A", "result": "reduce the stimulation of calcium influx"},
      {"measurement": "effect on stimulation of calcium influx caused by E. coli supernatant", "setting": "5637 cells; GABA mixed with E. coli supernatant, FIG. 10B", "result": "inhibit the stimulation of calcium influx"},
      {"measurement": "contraction of myofibroblasts", "setting": "[1]; GABA alone, FIG. 12C", "result": "did not cause contraction"},
      {"measurement": "effect on contraction caused by E. coli", "setting": "[1]; GABA with E. coli, FIG. 12D", "result": "inhibited contraction; also recorded: could inhibit contraction"}
    ]},
    {"smiles": "O=C(O)c1cn(C2CC2)c2cc(N3CCNCC3)c(F)cc2c1=O", "note": "[ciprofloxacin]", "values": [
      {"measurement": "ATP released by E. coli", "setting": "E. coli [3]", "result": "up to 0.0261±0.003 uM"}
    ]}
  ]
}
